Data taken from US7595053B2 (priority 2001, dated 2009).
Like-named read-outs stand apart in the source and are kept apart here.

Legend:
Mab Hs-1 = format: binding
MAb Hs-2 = format: binding
MAb Hs-3 = format: binding
[1] = system: Japanese encephalitis virus; format: in vivo, mice (BALB/C, C3H, SWISS/Albino); details: 50 ug peptide per mouse per dose sc with Freund's adjuvant every 14 days; FIGS. 3A-3C
[2] = system: Japanese encephalitis virus; format: cell-based, Porcine stable kidney cells; sera from mice
[3] = system: Japanese encephalitis virus; format: in vivo, mice (C3H, BALB/c, SWISS); details: observed 21 days
[4] = system: Japanese encephalitis virus; format: in vivo, BALB/c mice; details: 40 ug conjugate per mouse per dose with Freund's adjuvant
[5] = other strains of mice (BALB/c or SWISS)

| Substance | Reactivity with monoclonal antibody Hs-1, OD values at 492 nm (Mab Hs-1) | Reactivity with monoclonal antibody Hs-2, OD values at 492 nm (MAb Hs-2) | Reactivity with monoclonal antibody Hs-3, OD values at 492 nm (MAb Hs-3) | other results |
| --- | --- | --- | --- | --- |
| AIVVEYSS [269-AIVVEYSS-276] | 0.696 | 0.041 | 0.115 | Reaction with Mab Hs-1 (in words) (Mab Hs-1): react with Mab Hs-1 |
| ANDKPTLD [35-ANDKPTLD-42] | 0.022 | 0.016 | 0.052 | – |
| DKPTLDVR [37-DKPTLDVR-44] | 0.029 | 0.016 | 0.035 | – |
| DVRMINIE [42-DVRMINIE-49] | 0.155 | 0.008 | 0.043 | – |
| EYSSSVKL [273-EYSSSVKL-280] | 0.538 | 0.045 | 0.110 | – |
| H-SENHGNYSAQVGASQGSIGGVFNSIGKAVHQVFG-OH [chimeric peptide] | – | – | – | Anti Japanese encephalitis virus response by ELISA (in words) [1]: capable of eliciting an immune response against JE virus; Neutralization of Japanese encephalitis virus by anti-peptide sera [2, 5]: not able to neutralize the virus; Neutralization of Japanese encephalitis virus by anti-peptide sera ([2]; sera from C3H mice, diluted 1:50, plaque reduction, FIG. 4): capable of neutralizing Japanese encephalitis virus; Resistance to lethal virus challenge (survival) ([3]; C3H mice, challenge virus dose 2.3 log LD 50 i.p. followed by 1% starch i.c., FIG. 5): able to resist the virus challenge; Resistance to lethal virus challenge (survival) [3, 5]: nor were they able to resist the virus challenge |
| IMANDKPT [33-IMANDKPT-40] | 0.110 | 0.016 | 0.017 | – |
| IVVEYSSS [270-IVVEYSSS-277] | 0.637 | 0.030 | 0.112 | – |
| LDVRMINI [41-LDVRMINI-48] | 0.277 | 0.007 | 0.082 | – |
| MINIEASQ [45-MINIEASQ-52] | 0.177 | 0.001 | 0.080 | – |
| NHGNYSAQVGASQ [151-NHGNYSAQVGASQ-163] | 0.074 | 0.294 | 0.258 | – |
| NIEASQLA [47-NIEASQLA-54] | 0.07 | 0.003 | 0.081 | – |
| Ovalbumin | – | – | – | Reactivity of anti peptide sera with Japanese encephalitis virus by ELISA, mean optical density ([4]; sera collected on post inoculation day 7): 0.127 ± 0.022; Reactivity of anti peptide sera with Japanese encephalitis virus by ELISA, mean optical density ([4]; sera collected on post inoculation day 14): 0.116 ± 0.072; Reactivity of anti peptide sera with Japanese encephalitis virus by ELISA, mean optical density ([4]; sera collected on post inoculation day 21): 0.153 ± 0.003 |
| PTLDVRMI [39-PTLDVRMI-46] | 0.313 | 0.006 | 0.025 | Reaction with Mab Hs-1 (in words) (Mab Hs-1): react with Mab Hs-1 |
| SENHGNYSAQVGASQ [149-SENHGNYSAQVGASQ-163] | 0.093 | 0.415 | 0.377 | Anti Japanese encephalitis virus response by ELISA (in words) [1]: capable of eliciting an immune response against JE virus |
| SSSVKLTS [275-SSSVKLTS-282] | 0.765 | 0.053 | 0.136 | – |
| SSVKLTSG [276-SSVKLTSG-283] | 0.447 | 0.061 | 0.123 | – |
| TLDVRMIN [40-TLDVRMIN-47] | 0.329 | 0.008 | 0.064 | – |
| VEYSSSVK [272-VEYSSSVK-279] | 0.290 | 0.040 | 0.106 | – |
| VRMINIEA [43-VRMINIEA-50] | 0.338 | 0.012 | 0.133 | – |
| VVEYSSSV [271-VVEYSSSV-278] | 0.659 | 0.029 | 0.090 | – |
| YSAQVGASQ [155-YSAQVGASQ-163] | 0.118 | 0.492 | 0.334 | – |
| YSAQVGASQAAKF [155-YSAQVGASQAAKF-167] | 0.106 | 0.501 | 0.377 | – |
| YSSSVKLT [274-YSSSVKLT-281] | 0.616 | 0.054 | 0.153 | – |
